# Reference: PMC8900822 (Acta Crystallographica. Section D, Structural Biology, 2022)
# Tests used:
# BpsCAγ = BpsCAγ (Burkholderia pseudomallei, UniProt Q63SQ4); details: pH 8.3
# hCA I = hCA I (Homo sapiens, UniProt P00915); test: Stopped-flow CO2-hydration assay, hCA I
# BpsCAβ = BpsCAβ (Burkholderia pseudomallei, UniProt Q63Y17); details: pH 8.3
# hCA XII = hCA XII (Homo sapiens, UniProt O43570); test: biochemical
# VhCAα = VhCAα (Vibrio cholerae, UniProt Q9KMP6); test: biochemical
# carbonic anhydrase (CA) = system: carbonic anhydrase (CA); parameters: method as in Lankas & Peter, 1992; details: in vivo study, ref Lankas & Peter, 1992; cited from earlier work
# VhCAβ = VhCAβ (Vibrio cholerae, UniProt A0A086SLX8); test: biochemical
# Sequence of VhCAβ (A0A086SLX8 entry or part of it): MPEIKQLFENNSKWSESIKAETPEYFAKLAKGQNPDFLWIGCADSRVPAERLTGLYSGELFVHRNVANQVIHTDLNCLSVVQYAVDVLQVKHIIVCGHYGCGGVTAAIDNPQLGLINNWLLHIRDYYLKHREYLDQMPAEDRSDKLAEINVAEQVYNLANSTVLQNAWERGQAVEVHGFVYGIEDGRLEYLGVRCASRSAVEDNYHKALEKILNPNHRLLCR
# hCA IX = target: T1, hCA IX (Homo sapiens, UniProt Q16790); test: biochemical
# T1 construct: made in house
# mtCA 03 = target: T2, mtCA 03 (Mycobacterium tuberculosis, UniProt P96878); test: biochemical
# T2 sequence (P96878 550-764): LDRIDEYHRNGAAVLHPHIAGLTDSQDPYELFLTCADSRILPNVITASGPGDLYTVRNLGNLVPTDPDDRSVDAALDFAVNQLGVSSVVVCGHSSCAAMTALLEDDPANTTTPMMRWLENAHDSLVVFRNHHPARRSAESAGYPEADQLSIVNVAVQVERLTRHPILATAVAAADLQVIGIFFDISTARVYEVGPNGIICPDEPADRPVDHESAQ
# SazCA = target: T3, SazCA (Sulfurihydrogenibium azorense, UniProt C1DTU5); test: biochemical
# T3 sequence (C1DTU5 19-254): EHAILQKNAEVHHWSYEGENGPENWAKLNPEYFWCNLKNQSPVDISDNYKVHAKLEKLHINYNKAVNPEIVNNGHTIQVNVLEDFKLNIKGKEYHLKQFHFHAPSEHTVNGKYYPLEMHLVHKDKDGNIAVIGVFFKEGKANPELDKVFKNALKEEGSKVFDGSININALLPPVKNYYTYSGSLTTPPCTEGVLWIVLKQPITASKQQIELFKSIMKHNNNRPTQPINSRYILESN
# hCA II = hCA II (Homo sapiens, UniProt P00918); test: biochemical
# mtCA 02 = mtCA 02 (Mycobacterium tuberculosis, UniProt P9WPJ9); test: biochemical
# Sequence of mtCA 02 (P9WPJ9 whole entry, looked up): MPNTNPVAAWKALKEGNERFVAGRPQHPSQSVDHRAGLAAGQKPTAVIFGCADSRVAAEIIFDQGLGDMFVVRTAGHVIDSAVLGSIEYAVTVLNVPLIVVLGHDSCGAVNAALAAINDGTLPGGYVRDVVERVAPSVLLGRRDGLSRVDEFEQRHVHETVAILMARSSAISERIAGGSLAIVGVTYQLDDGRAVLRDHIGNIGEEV
# TweCA = target: T4, TweCA (Thalassiosira weissflogii, UniProt Q5U9J1); test: biochemical
# T4 sequence (Q5U9J1 1-281): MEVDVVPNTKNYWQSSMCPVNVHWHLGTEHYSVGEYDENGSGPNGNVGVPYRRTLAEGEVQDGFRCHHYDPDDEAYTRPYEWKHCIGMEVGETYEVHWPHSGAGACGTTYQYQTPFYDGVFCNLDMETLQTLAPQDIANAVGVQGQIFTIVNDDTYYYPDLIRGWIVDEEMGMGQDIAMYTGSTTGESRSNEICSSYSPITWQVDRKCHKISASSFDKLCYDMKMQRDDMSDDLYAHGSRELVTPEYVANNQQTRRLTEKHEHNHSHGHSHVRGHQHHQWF
# SmCA = target: T5, SmCA (Schistosoma mansoni, UniProt A0A4Y5UX87, S271R); test: biochemical
# T5 sequence (A0A4Y5UX87 21-298 S271R): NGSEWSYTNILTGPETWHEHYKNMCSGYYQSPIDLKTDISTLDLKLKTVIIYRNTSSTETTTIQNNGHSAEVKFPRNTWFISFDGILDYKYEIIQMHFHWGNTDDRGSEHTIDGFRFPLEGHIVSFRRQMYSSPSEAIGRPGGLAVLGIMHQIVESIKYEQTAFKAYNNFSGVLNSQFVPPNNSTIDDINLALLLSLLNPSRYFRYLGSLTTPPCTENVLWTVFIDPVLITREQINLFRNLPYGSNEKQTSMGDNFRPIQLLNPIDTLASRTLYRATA
# Sequence of hCA XII (O43570 25-354): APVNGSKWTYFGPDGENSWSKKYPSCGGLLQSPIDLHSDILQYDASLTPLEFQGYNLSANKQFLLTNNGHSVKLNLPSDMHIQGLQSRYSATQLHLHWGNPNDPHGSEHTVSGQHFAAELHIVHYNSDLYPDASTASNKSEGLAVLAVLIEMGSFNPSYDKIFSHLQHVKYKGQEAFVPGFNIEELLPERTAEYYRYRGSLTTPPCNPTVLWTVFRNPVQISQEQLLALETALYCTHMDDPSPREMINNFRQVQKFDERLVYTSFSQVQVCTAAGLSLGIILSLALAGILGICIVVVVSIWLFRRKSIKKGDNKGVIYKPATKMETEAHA
# Sequence of VhCAα (Q9KMP6 entry or part of it): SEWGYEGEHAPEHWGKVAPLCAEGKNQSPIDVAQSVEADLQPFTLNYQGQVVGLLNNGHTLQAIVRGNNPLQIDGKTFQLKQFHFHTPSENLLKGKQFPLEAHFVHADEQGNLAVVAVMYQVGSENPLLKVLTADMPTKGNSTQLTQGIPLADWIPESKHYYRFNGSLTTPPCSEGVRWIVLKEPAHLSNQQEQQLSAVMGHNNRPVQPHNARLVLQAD
# Sequence of hCA I (P00915 whole entry): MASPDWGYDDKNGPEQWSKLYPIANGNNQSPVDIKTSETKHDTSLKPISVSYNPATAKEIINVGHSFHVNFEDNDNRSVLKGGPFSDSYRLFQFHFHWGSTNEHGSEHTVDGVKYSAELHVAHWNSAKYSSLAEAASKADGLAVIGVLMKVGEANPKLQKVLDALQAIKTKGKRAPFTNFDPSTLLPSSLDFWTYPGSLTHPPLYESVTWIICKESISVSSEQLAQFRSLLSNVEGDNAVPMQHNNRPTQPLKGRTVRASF
# Sequence of BpsCAγ (Q63SQ4 1-174): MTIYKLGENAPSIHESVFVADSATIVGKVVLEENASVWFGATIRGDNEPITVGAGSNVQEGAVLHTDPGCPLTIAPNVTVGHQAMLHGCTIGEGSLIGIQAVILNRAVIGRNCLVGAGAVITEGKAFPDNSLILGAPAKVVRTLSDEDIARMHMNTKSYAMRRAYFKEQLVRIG
# Sequence of BpsCAβ (Q63Y17 1-256): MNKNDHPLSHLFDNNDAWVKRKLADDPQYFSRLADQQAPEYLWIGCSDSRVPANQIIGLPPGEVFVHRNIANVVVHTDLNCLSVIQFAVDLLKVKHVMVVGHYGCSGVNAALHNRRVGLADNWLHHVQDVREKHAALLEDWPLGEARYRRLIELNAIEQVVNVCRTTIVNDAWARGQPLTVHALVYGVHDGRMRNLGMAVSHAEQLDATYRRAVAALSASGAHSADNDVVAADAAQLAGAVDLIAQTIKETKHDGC
compound,measurement,setting,value
"Nc1cc(C(Cl)=C(Cl)Cl)c(S(N)(=O)=O)cc1S(N)(=O)=O [Clorsulon, 4-Amino-6-(1,2,2-trichlorovinyl)benzene-1,3-disulfonamide]",Ki,BpsCAγ,2500 nM
same,Ki,hCA I,4520 nM
same,Ki,BpsCAβ,223 nM
same,Ki,hCA XII,78 nM
same,Ki,VhCAα,292 nM
same,carbonic anhydrase (CA) inhibitory activity in rats,carbonic anhydrase (CA),weak
same,Ki,VhCAβ,906 nM
same,Ki,hCA IX,138 nM
same,Ki,mtCA 03,828 nM
same,Ki,SazCA,7.7 nM
same,Ki,hCA II,59.1 nM
same,Ki,mtCA 02,2.9 nM
same,Ki,TweCA,95.8 nM
same,Ki,SmCA,225 nM
